Read-outs that look alike come from different tables or passages of the source. Marks after values point to notes of the source that are not given here. Peptide text beside a SMILES is read from it.
Key:
[1] = test system: mice with liver injury induced by carbon tetrachloride; assay: acute liver injury of mice induced by carbon tetrachloride; format: in vivo, Kunming mice; details: for serum ALT activity / serum AST activity: blood 12 h after CCl4; for serum ALT activity / serum AST activity / GSH-PX activity of liver tissue / MDA content of liver tissue: x ± s, n = 12; for GSH-PX activity of liver tissue / MDA content of liver tissue: liver homogenate
Experimental: According to random number table, 60 male Kunming mice were divided into a normal control group, a model control group, a bifendate group, a heptapeptide large dose group and a heptapeptide small dose group, and the latter two groups were administered subcutaneously at 0.17 mg/kg and 0.085 mg/kg, respectively, once every two days for 7 d; the bifendate group was intragastric administered at 100 mg/kg once daily for 7 d; and the normal control group and model control group were administered subcutaneously with the same volume of physiological saline; after 1 h after the last administration, except for the normal control group, other groups were given olive oil solution comprising 0.15% carbon tetrachloride at 5 mL/kg by intraperitoneal injection. Each group was fasted but not restraint from water. Blood was taken from eyeball after 12 h, and the serum was separated for use. The mice were killed after the blood was taken, then dissected and the liver were taken out and homogenized for use. For mice from each group, the ALT, AST activities in the serum, and GSH-Px activity and MDA content in liver tissue were measured according to the kit instruction, and all data were expressed as mean±standard deviation (x±SD), and analysis of variance was used for the hypothesis test of mean value differences between each group.

[2] = test system: rats with liver fibrosis; assay: CCl4 liver fibrosis model of rats; format: in vivo, SD rats; details: for collogen area of liver tissue / serum ALT level / serum AST level: 8 weeks, x ± s, n = 12
Experimental: 2. Methods: 48 rats were randomly divided into a control group, a model group, a heptapeptide large dose group and a heptapeptide small dose group, each group contains 12 rats. CCI4was formulated into 40% solution with olive oil, and the solution was then injected subcutaneously to the animals at 5 ml/kg twice a week for 8 weeks; the intervention group with GAGPHGG was given the heptapeptide subcutaneously (the concentrations was 0.12 mg/kg and 0.06 mg/kg, respectively, once every two days, 8 weeks) while the model was setting up. The animals of each group were killed at 48 h after the last injection of CCI4, and then serum and liver tissue were taken for detection. The serum ALT, AST and TGFβ1 level were measured according to the kit instruction, and the liver tissue sample was fixed with neutral formalin solution and imbedded with paraffin. 5 ttm tissue section was made by using glass slide coated with polylysine, and it was then stained with HE and Masson triplication collogen for histopathological examination.

[3] = test system: duck hepatitis B virus (DHBV); format: in vivo, Beijing ducks; details: for A (3 d after administration was terminated), serum DHBV-DNA level: 3 d after stop; for A (3 d after administration was terminated), serum DHBV-DNA level / A (5 d after administration), serum DHBV-DNA level / A (10 d after administration), serum DHBV-DNA level / A (before administration), serum DHBV-DNA level: x ± s, n = 6; for A (5 d after administration), serum DHBV-DNA level: day 5 of administration; for A (10 d after administration), serum DHBV-DNA level: day 10 of administration; for A (before administration), serum DHBV-DNA level: baseline before administration, absorbance 490 nm
Experimental: 2.1 DHBV infection: Beijing ducks of one-day-old were administered from leg tibia (iv) with high DHBV-DNA positive duck serum. Blood was taken 7 d after infection, followed by the serum being separated and kept at -70° C.
2.2 experiment for pharmaceutical treatment: the DHBV infected ducks were divided into groups randomly, and for the heptapeptide administration groups, 0.5 mg/Kg and 1 mg/Kg were administered by subcutaneous injection, once every two days for 10 d, respectively. As for the virus control group, physiological saline was substituted for drugs. […] Venous blood was taken from the duck leg tibia before administration, on day 5 of administration, on day 10 of administration and 3 d after the administration was stopped. The serum was separated and kept at -70° C. for inspection.
2.3 detecting method: the duck serum for inspection above mentioned was taken and the dynamic level of DHBV-DNA in the serum was detected by simultaneous spotting each batch. DHBV-DNA probe was tagged with 32 p according to the instructions of nick translation kits, and then dot blot hybridization with the duck serum was carried out. The spots on the film were detected by radioautography, and the absorbance (A) (490 nm) was measured. Then density of serum DHBV-DNA was calculated by using the A value of hybridization spots as the level of DHBV-DNA in sample.
2.4 efficacy calculation: the x±s of serum DHBV-DNA levels at different time point for each group was calculated, and it is carried out to compare the states before and after administration for each group by using paired t-test. The inhibition ratio of DHBV-DNA was calculated and the dynamic change of the duck serum DHBV-DNA inhibition ratio for each group was compared. The administration groups were compared with the virus control group by using group t-test. The DHBV-DNA inhibition ratio=(A value before administration-A value after administration)/A value before administrationx100%.

[4] = 100 mg/kg intragastric once daily for 7 d
[5] = 0.06 mg/kg s.c. once every two days
[6] = 0.12 mg/kg s.c. once every two days
[7] = heptapeptide large dose, P<0.01
[8] = 0.085 mg/kg s.c. once every two days for 7 d
[9] = 0.17 mg/kg s.c. once every two days for 7 d
[10] = large dose and small dose groups, P<0.01
[11] = 0.5 mg/kg s.c. once every two days

SMILES: COC(=O)c1cc(OC)c2c(c1-c1c(C(=O)OC)cc(OC)c3c1OCO3)OCO2 [biphenyldicarboxylate, bifendate, reference compound]
- serum ALT activity [1, 4]: 92.36 ± 35.27 U/L
- serum AST activity [1, 4]: 156.24 ± 34.12 U/L
- GSH-PX activity of liver tissue [1, 4]: 296.82 ± 18.31 µmol/g
- MDA content of liver tissue [1, 4]: 5.29 ± 1.25 µmol/g

SMILES: C[C@H](NC(=O)CN)C(=O)NCC(=O)N1CCC[C@H]1C(=O)N[C@@H](Cc1c[nH]cn1)C(=O)NCC(=O)NCC(=O)O [heptapeptide, Gly-Ala-Gly-Pro-His-Gly-Gly] (H-GAGPHGG-OH; N-terminus assumed)
- collogen area of liver tissue [2, 5]: 380.82 ± 78.89 μm^2
- serum ALT level [2, 5]: 148.24 ± 32.52 U/L
- serum AST level [2, 5]: 180.35 ± 28.49 U/L
- collogen area of liver tissue [2, 6]: 138.12 ± 62.58** μm^2
- serum ALT level [2, 6]: 96.37 ± 35.12 U/L
- serum AST level [2, 6]: 108.75 ± 42.21 U/L
- mean area of liver collagen compared with model group [2, 7]: also decreased significantly
- serum TGFβ1 level compared with model group [2, 7]: decreased significantly
- serum TGFβ1 level and liver collagen area compared with model group ([2]; heptapeptide small dose group): had a decreasing trend, but not statistically significant
- ALT and AST levels compared with model control group ([2]; large dose (0.12 mg/kg) and small dose (0.06 mg/kg) groups, P<0.01): significantly declined
- anti-liver fibrosis effect (conclusion) ([2]; rats, CCl4): has some anti-liver fibrosis effect
- serum ALT activity [1, 8]: 123.24 ± 19.73 U/L
- serum AST activity [1, 8]: 186.97 ± 37.56 U/L
- GSH-PX activity of liver tissue [1, 8]: 267.18 ± 32.13 µmol/g
- MDA content of liver tissue [1, 8]: 6.48 ± 1.65 µmol/g
- serum ALT activity [1, 9]: 86.52 ± 28.72 U/L
- serum AST activity [1, 9]: 148.62 ± 31.25 U/L
- GSH-PX activity of liver tissue [1, 9]: 308.28 ± 38.54 µmol/g
- MDA content of liver tissue [1, 9]: 2.75 ± 1.36 µmol/g
- serum ALT, AST activities compared with model control group ([1]; large dose (0.17 mg/kg) and small dose (0.085 mg/kg) groups, P <0.01): declined significantly
- liver tissue GSH-Px activities compared with model control group [1, 10]: significantly higher than that of the model control group
- liver tissue MDA content compared with model control group [1, 10]: significantly lower than that of the model control group
- protection for acute liver injury (conclusion) ([1]; mice, carbon tetrachloride): presents protection for the acute liver injury resulted from carbon tetrachloride
- A (3 d after administration was terminated), serum DHBV-DNA level ([3]; 0.5 mg/kg s.c. once every two days for 10 d): 1.184 ± 0.19
- A (5 d after administration), serum DHBV-DNA level [3, 11]: 1.239 ± 0.16
- A (10 d after administration), serum DHBV-DNA level [3, 11]: 1.198 ± 0.18
- inhibition of duck hepatitis B virus (conclusion) ([3]; 1 mg/kg): can inhibit duck hepatitis B virus to some extent
- A (3 d after administration was terminated), serum DHBV-DNA level ([3]; 1 mg/kg s.c. once every two days for 10 d, P < 0.01 vs control): 0.884 ± 0.16
- A (5 d after administration), serum DHBV-DNA level ([3]; 1 mg/kg s.c. once every two days): 1.204 ± 0.21
- A (10 d after administration), serum DHBV-DNA level ([3]; 1 mg/kg s.c. once every two days, P < 0.01 vs control): 0.893 ± 0.13
- A (before administration), serum DHBV-DNA level ([3]; heptapeptide 0.5 mg/kg s.c. once every two days for 10 d): 1.286 ± 0.12
- A (before administration), serum DHBV-DNA level ([3]; heptapeptide 1 mg/kg s.c. once every two days for 10 d): 1.274 ± 0.14
